Measurements reported in patent US6495591B1, “Fungal efflux pump inhibitors” (Essential Therapeutics, Inc., priority 1997, dated 2002).
Read-outs that look alike come from different tables or passages of the source.

Columns and labels:
[1] = system: YEM 24 C. albicans ΔCDR1, ΔCDR2; experiment: microbe, parasite or virus in culture; type: cell-based; conditions: YEM 24, 24 hrs, 80% inhibition; for MIC of compound in the presence of fluconazole (+): 1/8 × MIC of fluconazole
[2] = target: pBEN (MF) efflux pump in S. cerevisiae YEM-2 (Candida albicans, UniProt P28873); experiment: cell-based; type: cell-based, C. albicans
[3] = system: YEM 17 C. glabrata, CgCDR up; type: cell-based; conditions: 24 hrs, 80% inhibition; for MIC of compound in the presence of fluconazole (+): 1/8 × MIC of fluconazole
[4] = system: YEM 15 C. albicans, CDR1CDR2 up; experiment: microbe, parasite or virus in culture; type: cell-based; conditions: YEM 15, 24 hrs, 80% inhibition; for MIC of compound in the presence of fluconazole (+): 1/8 × MIC of fluconazole
[5] = target: pCgCDR (ABC) efflux pump in S. cerevisiae YEM-39 (Candida glabrata, UniProt Q6FK23); experiment: cell-based; type: cell-based, C. glabrata
YEM 30 C. albicans wt = experiment: FEPI MIC with/without 1/8 fluconazole MIC at 24 hrs (Table 11); type: cell-based
[6] = target: pCDRI (ABC) efflux pump in S. cerevisiae YEM-1 (Candida albicans, UniProt P43071); experiment: cell-based; type: cell-based, C. albicans
[7] = target: pCDR2 (ABC) efflux pump in S. cerevisiae YEM-37 (Candida albicans, UniProt P78595); experiment: cell-based; type: cell-based, C. albicans
[8] = system: YEM 13 C. albicans BEN up; experiment: microbe, parasite or virus in culture; type: cell-based; conditions: YEM 13, 24 hrs, 80% inhibition; for MIC of compound in the presence of fluconazole (+): 1/8 × MIC of fluconazole
[9] = target: pFLU (MF) efflux pump in S. cerevisiae YEM-38 (Candida albicans, UniProt G1UB37); experiment: cell-based; type: cell-based, C. albicans
[10] = system: YEM 27 C. albicans ΔCDR1ΔCDR2 ΔBENΔFLU1; experiment: microbe, parasite or virus in culture; type: cell-based; conditions: YEM 27, 24 hrs, 80% inhibition; for MIC of compound in the presence of fluconazole (+): 1/8 × MIC of fluconazole
YEM 51 C. glabrata wt = experiment: FEPI MIC with/without 1/8 fluconazole MIC at 24 hrs (Table 11); type: cell-based
YEM 53 C. krusei = experiment: as above; type: cell-based
Aspergillus fumigatus = experiment: FEPI MICs in combination with 1/4 the azole's MIC (Table 12); type: cell-based; parameters: FEPI MIC (alone): unit not given here; conditions: for FEPI MIC with itraconazole, 60% Inh / FEPI MIC with itraconazole, 80% Inh: itraconazole 0.063 μg/ml (1/4 MIC); for FEPI MIC with ketoconazole, 60% Inh / FEPI MIC with ketoconazole, 80% Inh: ketoconazole 4 μg/ml (1/4 MIC); for FEPI MIC (alone): no azole, 35° C., CM Broth
Protocol: The combinations were tested against a series of Candida strain with known expression of efflux pumps or with complete deletion of all known pumps and Aspergillus fumigatus. Results are reported as minimum inhibitory concentration (MIC) of […] in the presence or absence of […]. A total of 27 distinct milbemycins were studied.

[11] = system: pCgBEN (MF) efflux pump in S. cerevisiae YEM-40; type: cell-based, C. glabrata
[12] = read-out: FEPIhalf (concentration needed to reduce activity of efflux pump by 50%), YEM-2 pBEN, fluconazole fixed at FLUhalf 5.6
[13] = read-out: FEPIhalf (concentration needed to reduce activity of efflux pump by 50%), YEM-39 pCgCDR, fluconazole fixed at FLUhalf 4
[14] = read-out: FEPIhalf (concentration needed to reduce activity of efflux pump by 50%), YEM-1 pCDRI, fluconazole fixed at FLUhalf 5.6
[15] = read-out: FEPIhalf (concentration needed to reduce activity of efflux pump by 50%), YEM-37 pCDR2, fluconazole fixed at FLUhalf 1
[16] = read-out: FEPIhalf (concentration needed to reduce activity of efflux pump by 50%), YEM-38 pFLU, fluconazole fixed at FLUhalf 2
[17] = YEM-40 pCgBEN, fluconazole fixed at FLUhalf 2.8

Sequence of pCgCDR (ABC) efflux pump in S. cerevisiae YEM-39 (Q6FK23 whole entry): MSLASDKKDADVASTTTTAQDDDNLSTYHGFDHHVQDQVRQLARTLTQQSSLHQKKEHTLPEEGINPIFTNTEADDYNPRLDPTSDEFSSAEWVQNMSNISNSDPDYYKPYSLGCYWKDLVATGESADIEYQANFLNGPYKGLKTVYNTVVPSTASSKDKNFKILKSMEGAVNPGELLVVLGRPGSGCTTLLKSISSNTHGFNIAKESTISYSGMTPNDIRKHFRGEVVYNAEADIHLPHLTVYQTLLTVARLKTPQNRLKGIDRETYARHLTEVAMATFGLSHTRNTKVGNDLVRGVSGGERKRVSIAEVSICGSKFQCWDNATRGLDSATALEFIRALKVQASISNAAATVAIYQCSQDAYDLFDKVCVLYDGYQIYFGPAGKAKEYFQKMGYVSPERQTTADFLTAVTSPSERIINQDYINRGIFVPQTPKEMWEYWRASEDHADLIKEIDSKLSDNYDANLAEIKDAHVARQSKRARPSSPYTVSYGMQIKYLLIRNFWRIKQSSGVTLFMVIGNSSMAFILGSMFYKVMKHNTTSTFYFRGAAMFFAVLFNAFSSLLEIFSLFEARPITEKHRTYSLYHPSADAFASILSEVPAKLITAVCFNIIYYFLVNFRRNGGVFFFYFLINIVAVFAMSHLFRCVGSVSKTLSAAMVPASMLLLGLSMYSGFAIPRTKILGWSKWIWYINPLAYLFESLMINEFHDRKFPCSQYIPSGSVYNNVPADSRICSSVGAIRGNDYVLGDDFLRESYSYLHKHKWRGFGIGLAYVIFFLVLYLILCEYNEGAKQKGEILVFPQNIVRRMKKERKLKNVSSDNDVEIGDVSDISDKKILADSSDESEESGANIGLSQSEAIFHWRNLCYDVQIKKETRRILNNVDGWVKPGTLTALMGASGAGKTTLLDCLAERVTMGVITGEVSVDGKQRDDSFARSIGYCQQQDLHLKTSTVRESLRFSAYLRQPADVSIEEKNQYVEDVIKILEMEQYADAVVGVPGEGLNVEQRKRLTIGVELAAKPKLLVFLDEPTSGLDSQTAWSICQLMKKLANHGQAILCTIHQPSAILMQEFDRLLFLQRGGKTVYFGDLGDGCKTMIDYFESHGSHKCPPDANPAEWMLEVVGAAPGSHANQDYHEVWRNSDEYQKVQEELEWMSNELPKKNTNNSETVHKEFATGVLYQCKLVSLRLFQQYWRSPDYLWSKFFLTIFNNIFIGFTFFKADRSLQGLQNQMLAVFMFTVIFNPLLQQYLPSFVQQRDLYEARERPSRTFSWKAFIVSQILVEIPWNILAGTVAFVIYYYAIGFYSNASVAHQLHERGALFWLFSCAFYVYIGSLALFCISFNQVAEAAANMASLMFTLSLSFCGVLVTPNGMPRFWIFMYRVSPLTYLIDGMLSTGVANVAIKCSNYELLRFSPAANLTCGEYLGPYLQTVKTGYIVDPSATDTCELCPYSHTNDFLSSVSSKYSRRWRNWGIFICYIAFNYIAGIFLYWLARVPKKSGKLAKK
Sequence of pCDRI (ABC) efflux pump in S. cerevisiae YEM-1 (P43071 whole entry): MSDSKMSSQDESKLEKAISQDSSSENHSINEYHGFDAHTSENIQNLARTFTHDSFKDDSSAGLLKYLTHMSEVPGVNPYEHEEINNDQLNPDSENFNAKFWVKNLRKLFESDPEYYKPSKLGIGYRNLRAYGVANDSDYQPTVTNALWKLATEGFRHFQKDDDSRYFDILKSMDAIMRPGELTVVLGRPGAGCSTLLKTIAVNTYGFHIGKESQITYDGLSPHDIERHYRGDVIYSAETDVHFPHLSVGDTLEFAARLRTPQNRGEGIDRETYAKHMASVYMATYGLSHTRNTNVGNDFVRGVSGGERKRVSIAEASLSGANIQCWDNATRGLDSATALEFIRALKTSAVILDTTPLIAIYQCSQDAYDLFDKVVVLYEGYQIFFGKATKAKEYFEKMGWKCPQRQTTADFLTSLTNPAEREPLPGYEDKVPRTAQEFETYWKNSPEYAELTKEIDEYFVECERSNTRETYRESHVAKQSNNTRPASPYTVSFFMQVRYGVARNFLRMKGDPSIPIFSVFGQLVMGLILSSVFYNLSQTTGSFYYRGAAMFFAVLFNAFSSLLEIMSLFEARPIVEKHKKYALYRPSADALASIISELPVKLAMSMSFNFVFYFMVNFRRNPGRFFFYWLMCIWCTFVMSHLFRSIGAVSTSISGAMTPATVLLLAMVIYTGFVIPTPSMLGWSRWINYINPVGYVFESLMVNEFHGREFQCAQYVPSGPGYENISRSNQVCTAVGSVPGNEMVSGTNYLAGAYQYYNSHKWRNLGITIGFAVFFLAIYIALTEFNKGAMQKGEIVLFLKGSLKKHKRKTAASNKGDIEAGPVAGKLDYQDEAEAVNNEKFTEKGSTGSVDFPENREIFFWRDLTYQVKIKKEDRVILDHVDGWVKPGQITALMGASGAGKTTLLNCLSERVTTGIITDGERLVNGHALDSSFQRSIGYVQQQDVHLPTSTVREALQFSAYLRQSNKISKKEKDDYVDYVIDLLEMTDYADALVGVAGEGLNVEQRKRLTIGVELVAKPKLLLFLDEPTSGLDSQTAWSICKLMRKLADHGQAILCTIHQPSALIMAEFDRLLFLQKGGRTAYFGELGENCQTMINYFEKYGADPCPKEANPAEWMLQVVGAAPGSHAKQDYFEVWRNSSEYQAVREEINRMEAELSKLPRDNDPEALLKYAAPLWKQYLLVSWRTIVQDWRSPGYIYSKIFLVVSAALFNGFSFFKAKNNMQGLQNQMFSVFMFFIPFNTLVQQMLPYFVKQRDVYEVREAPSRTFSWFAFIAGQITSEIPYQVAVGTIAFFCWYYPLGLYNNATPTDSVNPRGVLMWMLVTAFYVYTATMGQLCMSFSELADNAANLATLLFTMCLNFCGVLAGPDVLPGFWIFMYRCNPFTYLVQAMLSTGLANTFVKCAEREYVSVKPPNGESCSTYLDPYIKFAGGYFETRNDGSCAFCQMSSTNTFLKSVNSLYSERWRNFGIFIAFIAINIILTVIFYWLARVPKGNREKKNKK
Sequence of pBEN (MF) efflux pump in S. cerevisiae YEM-2 (P28873 whole entry): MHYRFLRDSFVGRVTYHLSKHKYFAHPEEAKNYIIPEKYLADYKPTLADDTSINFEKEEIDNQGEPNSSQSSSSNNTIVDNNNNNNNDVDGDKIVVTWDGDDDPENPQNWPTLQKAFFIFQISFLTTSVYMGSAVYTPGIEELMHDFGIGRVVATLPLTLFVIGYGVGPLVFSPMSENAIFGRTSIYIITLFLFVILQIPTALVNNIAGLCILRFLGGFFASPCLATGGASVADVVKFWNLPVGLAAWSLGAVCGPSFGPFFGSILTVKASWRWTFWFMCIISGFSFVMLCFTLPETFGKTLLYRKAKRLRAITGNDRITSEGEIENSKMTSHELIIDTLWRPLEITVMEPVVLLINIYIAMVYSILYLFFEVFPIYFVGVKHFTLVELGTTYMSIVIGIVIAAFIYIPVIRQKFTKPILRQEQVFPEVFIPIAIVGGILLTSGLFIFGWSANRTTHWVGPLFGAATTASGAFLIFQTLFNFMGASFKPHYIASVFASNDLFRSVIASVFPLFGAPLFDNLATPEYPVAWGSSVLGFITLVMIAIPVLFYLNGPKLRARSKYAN
Sequence of pCDR2 (ABC) efflux pump in S. cerevisiae YEM-37 (P78595 whole entry): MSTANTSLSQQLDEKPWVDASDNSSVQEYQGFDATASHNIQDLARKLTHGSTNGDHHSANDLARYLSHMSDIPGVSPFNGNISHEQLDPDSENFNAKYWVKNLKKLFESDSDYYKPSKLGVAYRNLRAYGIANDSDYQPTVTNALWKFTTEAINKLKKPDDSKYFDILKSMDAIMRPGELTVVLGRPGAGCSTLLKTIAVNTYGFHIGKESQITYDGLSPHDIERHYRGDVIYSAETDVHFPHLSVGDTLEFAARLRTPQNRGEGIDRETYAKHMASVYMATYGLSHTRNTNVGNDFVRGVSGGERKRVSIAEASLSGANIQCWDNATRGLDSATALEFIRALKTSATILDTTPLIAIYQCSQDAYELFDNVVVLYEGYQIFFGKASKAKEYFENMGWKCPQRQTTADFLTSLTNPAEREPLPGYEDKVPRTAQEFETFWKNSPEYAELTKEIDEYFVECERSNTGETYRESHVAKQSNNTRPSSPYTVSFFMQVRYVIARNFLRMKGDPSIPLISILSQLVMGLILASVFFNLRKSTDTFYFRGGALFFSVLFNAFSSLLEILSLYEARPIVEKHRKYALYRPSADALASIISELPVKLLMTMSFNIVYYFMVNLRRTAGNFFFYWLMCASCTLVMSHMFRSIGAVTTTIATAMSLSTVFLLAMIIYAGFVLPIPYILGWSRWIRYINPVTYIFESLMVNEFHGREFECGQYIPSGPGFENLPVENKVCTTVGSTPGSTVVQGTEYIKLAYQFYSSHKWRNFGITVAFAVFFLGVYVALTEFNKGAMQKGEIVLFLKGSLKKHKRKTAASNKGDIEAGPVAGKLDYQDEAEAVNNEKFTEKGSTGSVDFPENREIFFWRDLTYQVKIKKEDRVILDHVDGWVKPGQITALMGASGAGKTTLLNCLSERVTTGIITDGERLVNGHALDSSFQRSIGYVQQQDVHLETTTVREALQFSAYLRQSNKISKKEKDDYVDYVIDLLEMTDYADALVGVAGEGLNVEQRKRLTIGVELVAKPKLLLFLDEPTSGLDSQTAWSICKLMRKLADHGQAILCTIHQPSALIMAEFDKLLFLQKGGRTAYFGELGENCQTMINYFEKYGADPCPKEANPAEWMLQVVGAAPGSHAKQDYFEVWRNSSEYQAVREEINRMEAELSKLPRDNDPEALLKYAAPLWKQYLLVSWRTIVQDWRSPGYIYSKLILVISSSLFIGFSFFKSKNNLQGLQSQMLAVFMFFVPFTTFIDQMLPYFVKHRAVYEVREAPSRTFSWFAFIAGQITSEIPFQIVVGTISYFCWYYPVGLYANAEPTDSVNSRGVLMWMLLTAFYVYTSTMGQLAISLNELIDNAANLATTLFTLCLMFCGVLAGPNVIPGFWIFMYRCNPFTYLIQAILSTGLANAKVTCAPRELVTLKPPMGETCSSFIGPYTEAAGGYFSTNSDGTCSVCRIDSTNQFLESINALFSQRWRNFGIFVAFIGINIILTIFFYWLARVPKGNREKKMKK

| Compound | MIC of compound in the presence of fluconazole (+) [1] | MIC of compound in the absence of fluconazole (−) [1] | MIC of compound in the presence of fluconazole (+) [3] | MIC of compound in the absence of fluconazole (−) [3] | MIC of compound in the presence of fluconazole (+) [4] | MIC of compound in the absence of fluconazole (−) [4] | MIC of compound in the absence of fluconazole (−) (YEM 30 C. albicans wt; YEM 30, 24 hrs, 80% inhibition) | MIC of compound in the presence of fluconazole (+) [8] | MIC of compound in the absence of fluconazole (−) [8] | MIC of compound in the presence of fluconazole (+) [10] | MIC of compound in the absence of fluconazole (−) [10] | MIC of compound in the absence of fluconazole (−) (YEM 51 C. glabrata wt; YEM 51, 24 hrs, 80% inhibition) | MIC of compound in the absence of fluconazole (−) (YEM 53 C. krusei; YEM 53, 24 hrs, 80% inhibition) | FEPI MIC with itraconazole, 60% Inh (Aspergillus fumigatus; 60% inhibition) | FEPI MIC with itraconazole, 80% Inh (Aspergillus fumigatus; 80% inhibition) | FEPI MIC with ketoconazole, 60% Inh (Aspergillus fumigatus; 60% inhibition) | FEPI MIC with ketoconazole, 80% Inh (Aspergillus fumigatus; 80% inhibition) | FEPI MIC (alone) (Aspergillus fumigatus; 80% inhibition) | MIC of compound in the presence of fluconazole (+) (YEM 30 C. albicans wt) | MIC of compound in the presence of fluconazole (+) (YEM 51 C. glabrata wt) | further results |
| --- | --- | --- | --- | --- | --- | --- | --- | --- | --- | --- | --- | --- | --- | --- | --- | --- | --- | --- | --- | --- | --- |
| CCCCC(C)C(=O)OC1C(C)C(C)OC2(CC3CC(C/C=C(\C)CC(C)/C=C/C=C4\COC5C(O)C(C)=CC(C(=O)O3)C45O)O2)C1O (stereo not drawn) [Compound 8, Milbemycin α5] | > 64 µg/mL | > 64 µg/mL | 2 µg/mL | > 64 µg/mL | 0.125 µg/mL | > 64 µg/mL | > 64 µg/mL | > 64 µg/mL | > 64 µg/mL | > 64 µg/mL | > 64 µg/mL | > 64 µg/mL | > 64 µg/mL | 1 | 8 | ≦0.063 | ≦0.063 | >64 |  |  | FEPIhalf (concentration needed to reduce activity of efflux pump by 50%) ([2]; YEM-2 pBEN, fluconazole fixed at FLUhalf 5.6): 16; FEPIhalf (concentration needed to reduce activity of efflux pump by 50%) ([5]; YEM-39 pCgCDR, fluconazole fixed at FLUhalf 4): 8; MIC of compound in the presence of fluconazole (+) (YEM 30 C. albicans wt; YEM 30, 1/8 × MIC of fluconazole, 24 hrs, 80% inhibition): ≦0.03; FEPIhalf (concentration needed to reduce activity of efflux pump by 50%) ([6]; YEM-1 pCDRI, fluconazole fixed at FLUhalf 5.6): 0.5; FEPIhalf (concentration needed to reduce activity of efflux pump by 50%) ([7]; YEM-37 pCDR2, fluconazole fixed at FLUhalf 1): 2; FEPIhalf (concentration needed to reduce activity of efflux pump by 50%) ([9]; YEM-38 pFLU, fluconazole fixed at FLUhalf 2): >64; MIC of compound in the presence of fluconazole (+) (YEM 51 C. glabrata wt; YEM 51, 1/8 × MIC of fluconazole, 24 hrs, 80% inhibition): 8 µg/mL; MIC of compound in the presence of fluconazole (+) (YEM 53 C. krusei; YEM 53, 1/8 × MIC of fluconazole, 24 hrs, 80% inhibition): 32 µg/mL; FEPI MIC with fluconazole, 60% Inh (Aspergillus fumigatus; fluconazole 32 μg/ml (1/4 MIC), 60% inhibition): 1; FEPI MIC with fluconazole, 80% Inh (Aspergillus fumigatus; fluconazole 32 μg/ml (1/4 MIC), 80% inhibition): >64; FEPIhalf (concentration needed to reduce activity of efflux pump by 50%) [11]: >64 |
| CCCCC(C)C(=O)OC1[C@@H](O)[C@]2(C[C@@H]3C[C@@H](C/C=C(\C)C[C@@H](C)/C=C/C=C4\CO[C@@H]5[C@H](OC)C(C)=CC(C(=O)O3)[C@]45O)O2)O[C@H](C)[C@H]1C (stereo partly drawn) [Compound 9, Milbemycin α6] | > 64 µg/mL | > 64 µg/mL | 0.5 µg/mL | > 64 µg/mL | 0.125 µg/mL | > 64 µg/mL | > 64 µg/mL | > 64 µg/mL | > 64 µg/mL | > 64 µg/mL | > 64 µg/mL | > 64 µg/mL | > 64 µg/mL | 1 | >64 | ≦0.063 | ≦0.063 | >64 | ≦0.03 | 1 µg/mL | IC50 [2, 12]: > 93.2 µM; IC50 [5, 13]: 1.46 µM; IC50 [6, 14]: 2.91 µM; IC50 [7, 15]: > 93.2 µM; IC50 [9, 16]: > 93.2 µM; MIC of compound in the presence of fluconazole (+) (YEM 53 C. krusei): > 64 µg/mL; FEPI MIC with fluconazole, 60% Inh (Aspergillus fumigatus): 64; FEPI MIC with fluconazole, 80% Inh (Aspergillus fumigatus): >64; FEPIhalf (concentration needed to reduce activity of efflux pump by 50%) [11, 17]: >64 |
| CC1=C[C@H]2C(=O)O[C@H]3C[C@@H](C/C=C(\C)C[C@@H](C)/C=C/C=C4\CO[C@H]([C@@H]1O)[C@@]42O)O[C@]1(C3)C[C@H](O)[C@H](C)[C@@H](/C(C)=C/C(C)C)O1 [Compound 15, LL-F2849α (nemedectinα)] | > 64 µg/mL | > 64 µg/mL | 2 µg/mL | > 64 µg/mL | 0.5 µg/mL | > 64 µg/mL | > 64 µg/mL | > 64 µg/mL | > 64 µg/mL | > 64 µg/mL | > 64 µg/mL | > 64 µg/mL | > 64 µg/mL | 1 | >64 | 0.25 | 0.25 | >64 | ≦0.03 | 4 µg/mL | IC50 [2]: > 104 µM; IC50 [5]: 6.53 µM; IC50 [6]: 3.26 µM; IC50 [7]: 1.63 µM; IC50 [9]: > 104 µM; MIC of compound in the presence of fluconazole (+) (YEM 53 C. krusei): > 64 µg/mL; FEPI MIC with fluconazole, 60% Inh (Aspergillus fumigatus): 0.25; FEPI MIC with fluconazole, 80% Inh (Aspergillus fumigatus): >64; FEPIhalf (concentration needed to reduce activity of efflux pump by 50%) [11, 17]: >64 |
| CO[C@@H]1C(C)=C[C@H]2C(=O)O[C@H]3C[C@@H](C/C=C(\C)C[C@@H](C)/C=C/C=C4\CO[C@H]1[C@@]42O)O[C@]1(C3)C[C@H](O)[C@H](C)[C@@H](/C(C)=C/C(C)C)O1 [Compound 16, LL-F2849λ (nemedectinλ)] | > 64 µg/mL | > 64 µg/mL | 32 µg/mL | > 64 µg/mL | 0.125 µg/mL | > 64 µg/mL | > 64 µg/mL | 64 µg/mL | > 64 µg/mL | > 64 µg/mL | > 64 µg/mL | > 64 µg/mL | > 64 µg/mL | 1 | >64 | 0.125 | 0.125 | >64 | ≦0.03 | 2 µg/mL | IC50 [2, 12]: > 102 µM; IC50 [5, 13]: 102 µM; IC50 [6, 14]: 1.6 µM; IC50 [7, 15]: 0.399 µM; IC50 [9, 16]: > 102 µM; MIC of compound in the presence of fluconazole (+) (YEM 53 C. krusei): > 64 µg/mL; FEPI MIC with fluconazole, 60% Inh (Aspergillus fumigatus): >64; FEPI MIC with fluconazole, 80% Inh (Aspergillus fumigatus): >64; FEPIhalf (concentration needed to reduce activity of efflux pump by 50%) [11, 17]: >64 |
